*1 amine or outer side, *2 acyl side, *3 side chain or, on linkers, in order; H or OH if unused. Where a SMILES comes first, the peptide text is derived from it. Bridges are numbered along the chain shown (N, C = ends). [ ]: non-standard residue; d: D form. X2 = O=C([C@H](CCNP(=O)(CC[*:3])OCc1ccccc1)N[*:1])[*:2]; Nle = CCCC[C@H](N)C(=O)O
Tested on: HeLa cells
Experiment: Cellular uptake of CF-labelled peptides, confocal imaging
Format: cell-based
Settings: 10 μM mixture of 10% fluorescein (CF) labelled and 90% non-labelled peptides, three hours, 37°C, confocal microscopy

| Molecule | cellular uptake |
| --- | --- |
| CCCC[C@H](NC(=O)[C@H](CCCNC(=N)N)NC(=O)[C@H](CCC(N)=O)NC(=O)[C@@H](NC(=O)[C@H]1CSCCP(=O)(OCc2ccccc2)NCC[C@H](NC(=O)[C@H](CC(C)C)NC(=O)[C@H](CO)NC(=O)[C@H](CCCNC(=N)N)NC(=O)[C@H](CCC(=O)O)NC(=O)[C@H](CCCNC(=N)N)NC(=O)[C@H](Cc2c[nH]cn2)NC(=O)[C@H](CCC(=O)O)NC(=O)[C@H](CC(C)C)NC(=O)[C@H](CCC(N)=O)NC(=O)[C@H](CCC(=O)O)NC(=O)[C@H](CCC(N)=O)NC(=O)[C@H](CO)NC(=O)[C@H](CC(C)C)NC(C)=O)C(=O)N[C@@H]([C@@H](C)O)C(=O)N[C@@H](CC(C)C)C(=O)N[C@@H](CCCNC(=N)N)C(=O)N1)[C@@H](C)CC)C(=O)N[C@@H](CC(C)C)C(=O)N[C@@H](Cc1ccccc1)C(N)=O (stereo partly drawn) [compound 13, cyclic-benzylphosphonamidate-BCL9-Nle-Aha-DCys peptide] (Ac-LSQEQLEHRERSL[X2]TLR[dC]IQR[Nle]LF-NH2; thioether 14-18; N-terminus and C-terminus assumed) | increased cellular uptake |
| AcLSQEQLEHRERSL TLR IQRNMLFNH2 (sidechain bridge or staple) [compound 7, RCM-BCL9-Nle peptide] | taken up readily |
